Assays:
[1] = test system: patients with mild to moderate hypertension; experiment: Example 19 clinical study: eplerenone versus placebo co-administered with a calcium-channel blocker; type: in vivo, human
From the text: This multicenter, randomized, double-blind, placebo-controlled, placebo run-in, parallel group trial involving a minimum of 120 randomized patients with hypertension (seated diastolic blood pressure [seDBP]≧95 mmHg and <110 mmHg and seated systolic BP [seSBP]<180 mmHg while taking a CCB) will consist of a one- to two-week pretreatment screening period followed by a two- to four-week single-blind placebo run-in period and an 8-week double-blind treatment period. Eligible patients will be patients currently receiving a CCB as part of their antihypertensive medication. […] The dose will not be changed for patients with adequate BP control. […] If the dose has been increased at Week 2, the patient will be reassessed at Week 6. […] If BP is uncontrolled at Week 6 and the dose has been increased at Week 2 or Week 4, the patient must be withdrawn from the study. If symptomatic hypotension (i.e., lightheadedness, dizziness, or syncope associated with low BP) occurs at any time during the study, or if DBP is ≧110 mmHg or SBP is ≧180 mmHg at any time during the trial, the patient must be withdrawn. Patients will receive study medication for a total of 8 weeks.
Patients will return to the clinic for evaluations at Weeks 0 (baseline), 2, 4, 6, 8, and 9. Heart rate, BP, adverse events and concomitant medication will be assessed at each visit. Hematology and biochemistry evaluations and urinalysis for safety will be at Weeks 0, 8, and 9. Serum potassium levels will be determined at Weeks 0 (baseline), 2, 4, 6, 8, and 9. Plasma renin, serum aldosterone, and plasma cortisol will be determined at Weeks 0 and 8. A 12-lead electrocardiogram and physical examination will be done at screening and at Week 9.
The study will consist of a one- to two-week pretreatment screening period followed by a two- to four-week single-blind placebo run-in treatment period, prior to randomization to an eight-week double-blind treatment period.
Eligible patients will be either currently receiving a CCB alone, or receiving a CCB as part of their antihypertensive medication. […] The dose will not be changed for patients with adequate BP control. […] If the dose has been increased at Week 2, the patient will be reassessed at Week-6. The dose of study medication will not be changed for patients with adequate BP control. […] If BP is uncontrolled at Week 6 and the dose has been increased at Week 2 or Week 4, the patient must be withdrawn from the study. The dose of study medication will not be changed for patients with adequate BP control. If symptomatic hypotension (i.e., lightheadedness, dizziness, or syncope associated with low BP) occurs at any time during the study, or if DBP is ≧110 mmHg or SBP is ≧180 mmHg at any time during the study, the patient must be withdrawn. Patients will receive study medication for a total of eight weeks.
Patients will return to the clinic for evaluations at Weeks 0, 2, 4, 6, 8, and 9. Heart rate, BP, adverse events and concomitant medication will be assessed at each visit. Hematology and biochemistry evaluations and urinalysis for safety will be at Weeks 0, 8, and 9. Serum potassium levels will be determined at Weeks 0, 2, 4, 6, 8, and 9. Plasma renin, serum aldosterone, and plasma cortisol will be determined at Weeks 0 and 8. […]
BP evaluations will be analyzed at each visit using two-way analysis of covariance (ANCOVA) with the baseline measurement as the covariate and treatment and center as factors. […]

[2] = test system: hypertensive rats; experiment: Assay C: hypertensive rat model (renal artery clip); type: in vivo; conditions: combination of beta-adrenergic antagonist and eplerenone versus either component alone, after 12 to 24 weeks
From the text: Assay “C”: Hypertensive Rat Model Male rats are made hypertensive by placing a silver clip with an aperture of 240 microns on the left renal artery, leaving the contralateral kidney untouched. Sham controls undergo the same procedure but without attachment of the clip. One week prior to the surgery, animals to be made hypertensive are divided into separate groups and drug treatment is begun. […] After 12 to 24 weeks, systolic and diastolic blood pressure, left ventricular end diastolic pressure, left ventricular dP/dt, and heart rate are evaluated. The hearts are removed, weight, measured and fixed in formalin. Collagen content of heart sections are evaluated using computerized image analysis of picrosirius stained sections.

[3] = test system: rats with coronary artery ligation; experiment: Assay D: myocardial infarction rat model; type: in vivo; conditions: combination of beta-adrenergic antagonist and eplerenone versus either component alone, after six weeks
From the text: Assay “D” Myocardial Infarction Rat Model: male rats are anesthetized and the heart is exteriorized following a left sided thoracotomy. The left anterior descending coronary artery is ligated with a suture. The thorax is closed and the animal recovers. Sham animals have the suture passed through without ligation. One week prior to the surgery, animals to undergo infraction are divided into separate groups and drug treatment is begun. […] After six weeks, systolic and diastolic blood pressure, left ventricular end diastolic pressure, left ventricular dP/dt, and heart rate are evaluated. The hearts are removed, weight, measured and fixed in formalin. Collagen content of heart sections are evaluated using computerized image analysis of picrosirius stained sections.

[4] = test system: animal models; conditions: cited from earlier work
[5] = eplerenone plus CCB compared to CCB and placebo

Compound	systolic blood pressure ([1]; eplerenone 50-100 mg plus fixed dose CCB versus CCB plus placebo, eight weeks)	serious adverse events ([1]; eplerenone added to CCB therapy)	active renin levels [1, 5]	aldosterone levels [1, 5]	change in mean diastolic blood pressure ([1]; eplerenone plus CCB versus CCB plus placebo, eight weeks)	cardiac performance [2]	cardiac performance [3]	myocardial fibrosis ([4]; D. Klug et al 1993)	fibrosis ([4]; irrespective of left ventricular hypertrophy and hypertension, C. G. Brilla et al 1993)
COC(=O)[C@@H]1CC2=CC(=O)CC[C@]2(C)[C@@]23O[C@@H]2C[C@@]2(C)[C@@H](CC[C@@]24CCC(=O)O4)[C@H]13 [eplerenone, Pregn-4-ene-7,21-dicarboxylic acid, 9,11-epoxy-17-hydroxy-3-oxo-,γ-lactone, methyl ester, (7α,11α,17β)-]	significant reduction	no serious adverse events	greater increase	greater increase	greater for the dual therapy group, compared to monotherapy, but this difference did not reach statistical significance	improvements in cardiac performance	improvements in cardiac performance		
CC(=O)S[C@@H]1CC2=CC(=O)CC[C@]2(C)[C@H]2CC[C@@]3(C)[C@@H](CC[C@@]34CCC(=O)O4)[C@H]12 [spironolactone]								prevents myocardial fibrosis	prevent fibrosis

Source: patent US20040235809A1, “Epoxy steroidal aldosterone antagonist and beta-adremergic antagonist combination therepy for treatment of congestive heart failure” (priority 2000, published 2004)
